According to ChEMBL document CHEMBL1138235, “Discovery of dibenzo[c,f][2,7]naphthyridines as potent and selective 3-phosphoinositide-dependent kinase-1 inhibitors” (J Med Chem, 2007):

Assays:
[1] = Growth inhibition of M49-5 cells; type: functional, cell-based; conditions: Homo sapiens
HCT-116 = experiment: Growth inhibition of HCT116 cells; type: functional, cell-based; conditions: Homo sapiens
MDA-MB-468 = experiment: Growth inhibition of MDA-MB-468 cells; type: functional, cell-based; conditions: Homo sapiens
[2] = Inhibition of P38; set-up: species or system Homo sapiens
DU-145 = experiment: Growth inhibition of DU145 cells; type: functional, cell-based; conditions: Homo sapiens
[3] = Inhibition of TPL2; set-up: species or system Homo sapiens
[4] = molecular target: Ribosomal protein S6 kinase beta-1 (Homo sapiens, UniProt P23443); experiment: Inhibition of S6K
[5] = Inhibition of PKA; set-up: species or system Homo sapiens
SW-620 = experiment: Growth inhibition of SW620 cells; type: functional, cell-based; conditions: Homo sapiens
[6] = molecular target: Proto-oncogene tyrosine-protein kinase Src (Homo sapiens, UniProt P12931); experiment: Inhibition of Src
[7] = molecular target: RAC-alpha serine/threonine-protein kinase (Homo sapiens, UniProt P31749); experiment: Inhibition of AKT
K562 = experiment: Growth inhibition of K562 cells; type: functional, cell-based; conditions: Homo sapiens
[8] = Inhibition of CAMII; set-up: species or system Homo sapiens
[9] = molecular target: MAP kinase-activated protein kinase 2 (Homo sapiens, UniProt P49137); experiment: Inhibition of MK2
[10] = Inhibition of MEK; set-up: species or system Homo sapiens
[11] = Growth inhibition of PC-3mm2 cells; type: functional, cell-based; conditions: Homo sapiens, PC3MM2
[12] = molecular target: T1, Serine/threonine-protein kinase Sgk1 (Homo sapiens, UniProt O00141); experiment: Inhibition of SGK1
T1 sequence (O00141 whole entry): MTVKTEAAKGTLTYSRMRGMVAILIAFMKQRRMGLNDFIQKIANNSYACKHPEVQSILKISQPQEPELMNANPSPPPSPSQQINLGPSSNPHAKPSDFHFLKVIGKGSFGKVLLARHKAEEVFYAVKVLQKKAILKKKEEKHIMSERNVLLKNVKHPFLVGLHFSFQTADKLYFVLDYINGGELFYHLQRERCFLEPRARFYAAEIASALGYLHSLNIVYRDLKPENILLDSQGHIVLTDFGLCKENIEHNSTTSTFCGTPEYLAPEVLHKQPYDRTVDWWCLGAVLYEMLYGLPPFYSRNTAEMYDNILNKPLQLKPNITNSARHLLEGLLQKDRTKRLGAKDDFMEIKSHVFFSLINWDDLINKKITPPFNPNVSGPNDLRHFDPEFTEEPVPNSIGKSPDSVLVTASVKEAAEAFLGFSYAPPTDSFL

[13] = molecular target: Inhibitor of NF-kappa-B kinase (IKK) (Homo sapiens, UniProt O14920+O15111+Q9Y6K9); experiment: Inhibition of IKK; type: protein-complex assay
[14] = molecular target: Cyclin-dependent kinase 4 (Homo sapiens, UniProt P11802); experiment: Inhibition of CDK4
[15] = molecular target: T2, 3-phosphoinositide-dependent protein kinase 1 (Homo sapiens, UniProt O15530); experiment: Inhibition of PDK1
T2 sequence (O15530 whole entry): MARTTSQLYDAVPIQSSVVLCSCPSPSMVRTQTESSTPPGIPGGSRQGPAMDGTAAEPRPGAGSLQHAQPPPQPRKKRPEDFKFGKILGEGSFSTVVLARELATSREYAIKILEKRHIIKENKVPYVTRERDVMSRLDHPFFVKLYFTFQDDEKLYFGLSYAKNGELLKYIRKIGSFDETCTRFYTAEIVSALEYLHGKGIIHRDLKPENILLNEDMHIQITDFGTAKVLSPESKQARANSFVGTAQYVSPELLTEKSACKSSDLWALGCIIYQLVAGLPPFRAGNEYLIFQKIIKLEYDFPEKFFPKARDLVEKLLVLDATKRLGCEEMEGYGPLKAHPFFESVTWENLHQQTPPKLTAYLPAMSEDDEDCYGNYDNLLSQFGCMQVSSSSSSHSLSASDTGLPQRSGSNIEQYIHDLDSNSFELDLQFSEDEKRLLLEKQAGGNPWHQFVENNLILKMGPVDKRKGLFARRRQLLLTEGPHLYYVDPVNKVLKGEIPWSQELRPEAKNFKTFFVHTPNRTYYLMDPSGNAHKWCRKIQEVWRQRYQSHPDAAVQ

Proto-oncogene tyrosine-protein kinase Src, sequence (P12931 2-536 limits assumed): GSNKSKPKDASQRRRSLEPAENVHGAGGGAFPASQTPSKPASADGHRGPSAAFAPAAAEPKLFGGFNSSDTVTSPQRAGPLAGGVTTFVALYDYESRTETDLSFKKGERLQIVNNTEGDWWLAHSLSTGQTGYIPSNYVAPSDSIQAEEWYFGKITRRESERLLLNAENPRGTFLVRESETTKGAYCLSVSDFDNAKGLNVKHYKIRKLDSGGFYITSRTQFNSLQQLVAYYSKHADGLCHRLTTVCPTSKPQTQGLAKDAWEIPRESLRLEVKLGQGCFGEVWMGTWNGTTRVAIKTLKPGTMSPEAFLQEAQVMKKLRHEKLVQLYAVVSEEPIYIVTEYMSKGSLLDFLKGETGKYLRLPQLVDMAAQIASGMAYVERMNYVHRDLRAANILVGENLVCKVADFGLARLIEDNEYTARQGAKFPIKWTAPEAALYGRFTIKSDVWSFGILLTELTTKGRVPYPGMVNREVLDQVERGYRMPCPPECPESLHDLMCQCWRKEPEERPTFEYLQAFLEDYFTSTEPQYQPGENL
Cyclin-dependent kinase 4, sequence (P11802 whole entry): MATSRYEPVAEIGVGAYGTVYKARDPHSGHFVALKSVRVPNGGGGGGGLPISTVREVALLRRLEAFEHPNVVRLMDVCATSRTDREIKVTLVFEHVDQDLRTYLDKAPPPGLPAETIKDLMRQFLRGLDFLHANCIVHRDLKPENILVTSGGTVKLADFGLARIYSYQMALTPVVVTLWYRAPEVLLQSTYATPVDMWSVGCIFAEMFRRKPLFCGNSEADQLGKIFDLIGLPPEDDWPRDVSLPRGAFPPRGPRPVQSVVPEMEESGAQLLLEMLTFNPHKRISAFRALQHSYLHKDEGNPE
Ribosomal protein S6 kinase beta-1, sequence (P23443 whole entry): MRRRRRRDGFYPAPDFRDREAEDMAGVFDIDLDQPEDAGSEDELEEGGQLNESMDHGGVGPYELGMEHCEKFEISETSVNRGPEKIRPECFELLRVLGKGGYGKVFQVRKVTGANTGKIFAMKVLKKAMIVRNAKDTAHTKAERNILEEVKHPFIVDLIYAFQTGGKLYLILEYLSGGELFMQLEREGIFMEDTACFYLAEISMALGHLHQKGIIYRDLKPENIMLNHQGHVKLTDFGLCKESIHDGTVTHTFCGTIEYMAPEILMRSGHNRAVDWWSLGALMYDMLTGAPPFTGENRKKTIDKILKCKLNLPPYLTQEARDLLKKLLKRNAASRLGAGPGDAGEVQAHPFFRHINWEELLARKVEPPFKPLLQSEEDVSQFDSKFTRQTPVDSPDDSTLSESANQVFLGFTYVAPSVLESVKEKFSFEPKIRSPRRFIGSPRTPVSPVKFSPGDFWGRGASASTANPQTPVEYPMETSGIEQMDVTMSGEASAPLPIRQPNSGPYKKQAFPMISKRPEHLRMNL
Inhibitor of NF-kappa-B kinase (IKK), sequence (O14920 whole entry): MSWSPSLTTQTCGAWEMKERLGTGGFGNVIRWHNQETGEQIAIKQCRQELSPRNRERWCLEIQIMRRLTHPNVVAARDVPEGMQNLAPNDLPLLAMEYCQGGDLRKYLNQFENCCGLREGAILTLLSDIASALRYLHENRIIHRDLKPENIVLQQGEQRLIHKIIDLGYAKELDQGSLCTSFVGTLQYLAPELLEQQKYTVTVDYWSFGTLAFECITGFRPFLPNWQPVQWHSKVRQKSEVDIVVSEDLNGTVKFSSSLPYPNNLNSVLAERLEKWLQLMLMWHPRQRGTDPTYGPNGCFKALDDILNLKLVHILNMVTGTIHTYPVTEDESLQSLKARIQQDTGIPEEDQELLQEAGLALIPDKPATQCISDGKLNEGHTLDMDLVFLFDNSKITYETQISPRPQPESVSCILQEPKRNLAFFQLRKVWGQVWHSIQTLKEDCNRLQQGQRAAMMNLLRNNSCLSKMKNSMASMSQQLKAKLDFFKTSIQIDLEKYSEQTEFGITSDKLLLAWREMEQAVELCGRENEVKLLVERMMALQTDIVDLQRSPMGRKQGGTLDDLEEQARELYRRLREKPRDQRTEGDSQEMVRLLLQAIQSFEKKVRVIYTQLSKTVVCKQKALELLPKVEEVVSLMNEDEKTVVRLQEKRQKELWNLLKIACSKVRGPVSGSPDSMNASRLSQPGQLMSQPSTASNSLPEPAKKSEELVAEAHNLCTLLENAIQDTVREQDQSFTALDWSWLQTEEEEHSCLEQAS
Inhibitor of NF-kappa-B kinase (IKK), sequence (O15111 whole entry): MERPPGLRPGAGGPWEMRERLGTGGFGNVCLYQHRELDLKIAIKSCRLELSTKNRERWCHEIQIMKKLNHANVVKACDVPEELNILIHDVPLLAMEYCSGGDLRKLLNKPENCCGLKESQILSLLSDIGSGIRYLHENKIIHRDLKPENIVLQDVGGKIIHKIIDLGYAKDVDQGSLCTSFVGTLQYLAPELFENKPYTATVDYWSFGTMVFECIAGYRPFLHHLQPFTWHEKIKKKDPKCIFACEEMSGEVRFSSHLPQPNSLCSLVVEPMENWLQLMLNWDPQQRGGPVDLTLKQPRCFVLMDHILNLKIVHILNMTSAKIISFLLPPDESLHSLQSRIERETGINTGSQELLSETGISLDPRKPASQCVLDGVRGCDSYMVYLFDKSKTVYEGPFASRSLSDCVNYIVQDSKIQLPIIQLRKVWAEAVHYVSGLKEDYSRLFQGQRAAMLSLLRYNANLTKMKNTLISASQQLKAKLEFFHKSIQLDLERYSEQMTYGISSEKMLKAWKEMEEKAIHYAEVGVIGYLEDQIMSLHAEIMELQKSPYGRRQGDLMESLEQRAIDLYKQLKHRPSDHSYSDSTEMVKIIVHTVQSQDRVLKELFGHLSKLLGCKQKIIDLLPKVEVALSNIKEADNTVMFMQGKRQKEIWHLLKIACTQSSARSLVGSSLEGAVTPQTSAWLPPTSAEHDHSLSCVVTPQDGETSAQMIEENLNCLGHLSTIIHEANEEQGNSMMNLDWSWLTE
Inhibitor of NF-kappa-B kinase (IKK), sequence (Q9Y6K9 whole entry): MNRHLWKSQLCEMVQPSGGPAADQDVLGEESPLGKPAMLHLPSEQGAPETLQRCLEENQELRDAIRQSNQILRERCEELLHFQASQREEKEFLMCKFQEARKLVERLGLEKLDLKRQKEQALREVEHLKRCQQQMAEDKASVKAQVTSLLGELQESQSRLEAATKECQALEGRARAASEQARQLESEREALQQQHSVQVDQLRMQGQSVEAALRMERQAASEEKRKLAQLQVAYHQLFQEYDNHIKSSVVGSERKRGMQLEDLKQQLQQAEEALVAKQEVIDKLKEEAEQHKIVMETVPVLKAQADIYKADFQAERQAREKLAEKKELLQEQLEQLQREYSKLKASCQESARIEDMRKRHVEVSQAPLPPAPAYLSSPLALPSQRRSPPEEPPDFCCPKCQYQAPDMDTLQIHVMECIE
MAP kinase-activated protein kinase 2, sequence (P49137 whole entry): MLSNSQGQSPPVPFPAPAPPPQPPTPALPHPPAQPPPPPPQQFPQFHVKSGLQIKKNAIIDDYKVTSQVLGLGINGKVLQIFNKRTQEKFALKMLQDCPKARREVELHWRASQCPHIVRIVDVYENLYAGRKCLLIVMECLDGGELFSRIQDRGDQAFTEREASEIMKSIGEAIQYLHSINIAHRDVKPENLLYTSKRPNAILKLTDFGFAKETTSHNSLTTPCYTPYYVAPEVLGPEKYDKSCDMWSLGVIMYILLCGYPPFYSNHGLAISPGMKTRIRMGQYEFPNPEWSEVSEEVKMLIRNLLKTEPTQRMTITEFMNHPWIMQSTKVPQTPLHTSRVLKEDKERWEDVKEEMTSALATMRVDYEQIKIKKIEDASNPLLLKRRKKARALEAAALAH
RAC-alpha serine/threonine-protein kinase, sequence (P31749 whole entry): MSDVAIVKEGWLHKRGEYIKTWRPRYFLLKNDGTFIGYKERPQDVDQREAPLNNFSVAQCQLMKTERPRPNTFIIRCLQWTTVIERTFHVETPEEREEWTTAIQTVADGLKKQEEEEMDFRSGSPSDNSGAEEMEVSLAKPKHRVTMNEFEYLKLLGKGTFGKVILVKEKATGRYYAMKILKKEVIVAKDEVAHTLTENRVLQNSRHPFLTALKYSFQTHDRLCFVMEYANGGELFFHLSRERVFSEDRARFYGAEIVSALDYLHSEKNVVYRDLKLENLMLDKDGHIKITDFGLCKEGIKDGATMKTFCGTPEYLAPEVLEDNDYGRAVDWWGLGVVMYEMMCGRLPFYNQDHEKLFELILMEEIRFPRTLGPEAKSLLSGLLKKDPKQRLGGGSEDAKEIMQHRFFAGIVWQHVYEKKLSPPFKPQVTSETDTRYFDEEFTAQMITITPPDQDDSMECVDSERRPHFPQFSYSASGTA

COc1cc2ncc3c(N)nc4c(C)c(N)ccc4c3c2cc1OC
IC50 [1]: 0.35 µM
IC50 (HCT-116): 3.6 µM
IC50 (MDA-MB-468): 1.55 µM
IC50 [2]: > 10 µM
IC50 (DU-145): 2.53 µM
IC50 [3]: > 10 µM
IC50 [4]: > 10 µM
IC50 [5]: > 10 µM
IC50 (SW-620): 3.9 µM
IC50 [6]: > 10 µM
IC50 [7]: > 10 µM
IC50 (K562): 0.48 µM
IC50 [8]: > 10 µM
IC50 [9]: > 10 µM
IC50 [10]: > 10 µM
IC50 [11]: 4.3 µM
IC50 [12]: > 10 µM
IC50 [13]: > 10 µM
IC50 [14]: > 10 µM

COc1cc2ncc3cnc4ccccc4c3c2cc1OC
IC50 [15]: 7.45 µM

COc1cc2ncc3c(N)nc4c(C)c(Cl)ccc4c3c2cc1OC
IC50 [15]: 2.12 µM

COc1cc2c(cc1NCCN(C)C)ncc1c(N)nc3c(C)c(N)ccc3c12
IC50 [15]: 2.49 µM

COc1cc2c(cc1F)ncc1c(N)nc3c(C)c(N)ccc3c12
IC50 [15]: 0.58 µM

COc1cc2c(cc1OCCN1CCOCC1)ncc1c(N)nc3c(C)c(N)ccc3c12
IC50 [15]: 0.06 µM

COc1cc2ncc3c(N)nc4c(C)c(O)ccc4c3c2cc1OC
IC50 [15]: 0.04 µM

COc1cc2c(cc1OCCCN(C)C)ncc1c(N)nc3c(C)c(N)ccc3c12
IC50 [15]: 0.2 µM
